Columns and labels:
Assay type in all cases: functional, cell-based
[1] = Antiproliferative activity against human SPC-A1 cells by MTT assay; details: SPCA1
A549 = assay: Antiproliferative activity against human A549 cells by MTT assay
K562 = assay: Antiproliferative activity against human K562 cells by MTT assay
A2780 [2] = assay: Antiproliferative activity against cisplatin-sensitive human A2780 cells by MTT assay
A2780 [3] = assay: Antiproliferative activity against cisplatin-resistant human A2780 cells by MTT assay

SMILES: C=CCc1cc(C=O)c(O)c(-c2cc(C=O)c(O)c(CC=C)c2)c1
- IC50 [1]: 45.3 µM
- IC50 (A549): 55 µM
- IC50 (K562): 36 µM

SMILES: C=CCc1cc(/C=N\O)c(O)c(-c2cc(/C=N/O)c(O)c(CC=C)c2)c1
- IC50 (A2780 [2]): 20.2 µM
- IC50 [1]: 43.8 µM
- IC50 (A549): 32.4 µM
- IC50 (K562): 21.5 µM
- IC50 (A2780 [3]): 29.3 µM

SMILES: C=CCc1cc(/C=C2\SC(=O)NC2=O)c(O)c(-c2cc(/C=C3\SC(=O)NC3=O)c(O)c(CC=C)c2)c1
- IC50 [1]: > 76.9 µM
- IC50 (A549): > 76.9 µM
- IC50 (K562): > 76.9 µM

SMILES: C=CCc1cc(/C=C(\C#N)C(=O)OCC)c(O)c(-c2ccc(O)c(CC=C)c2)c1
- IC50 [1]: 92.5 µM
- IC50 (A549): 87.4 µM
- IC50 (K562): 95.1 µM

SMILES: C=CCc1cc(/C=N/CCN)c(O)c(-c2ccc(O)c(CC=C)c2)c1
- IC50 [1]: 50.3 µM
- IC50 (A549): 41.1 µM
- IC50 (K562): 42.6 µM

SMILES: C=CCc1ccc(O)c(-c2cc(/C=C3\SC(=O)NC3=O)c(O)c(CC=C)c2)c1
- IC50 [1]: > 102 µM
- IC50 (A549): > 102 µM
- IC50 (K562): 81.4 µM

SMILES: C=CCc1ccc(O)c(-c2cc(/C=N/O)c(O)c(CC=C)c2)c1
- IC50 [1]: 53.1 µM
- IC50 (A549): 39.5 µM
- IC50 (K562): 24.9 µM

SMILES: C=CCc1ccc(O)c(-c2cc(/C=C(\C#N)C(=O)OCC)c(O)c(CC=C)c2)c1
- IC50 [1]: 62 µM
- IC50 (A549): 57.6 µM
- IC50 (K562): 47.6 µM

SMILES: C=CCc1cc(/C=N/C2CCCCC2)c(O)c(-c2ccc(O)c(CC=C)c2)c1
- IC50 [1]: 88 µM
- IC50 (A549): 93.3 µM
- IC50 (K562): 90.7 µM

SMILES: C=CCc1cc(/C=N/c2ccccc2)c(O)c(-c2ccc(O)c(CC=C)c2)c1
- IC50 [1]: 40.7 µM
- IC50 (A549): 39.8 µM
- IC50 (K562): 32.2 µM

SMILES: C=CCc1cc(/C=N/CCCCCC)c(O)c(-c2ccc(O)c(CC=C)c2)c1
- IC50 [1]: > 106 µM
- IC50 (A549): > 106 µM
- IC50 (K562): > 106 µM

SMILES: C=CCc1ccc(O)c(-c2ccc(O)c(CC=C)c2)c1 [HONOKIOL]
- IC50 (A2780 [2]): 30.5 µM
- IC50 [1]: 36.1 µM
- IC50 (A549): 35 µM
- IC50 (K562): 21.1 µM
- IC50 (A2780 [3]): 41.2 µM

SMILES: C=CCc1cc(/C=N/Nc2ccccc2)c(O)c(-c2ccc(O)c(CC=C)c2)c1
- IC50 [1]: > 104 µM
- IC50 (A549): > 104 µM
- IC50 (K562): > 104 µM

SMILES: C=CCc1cc(C=O)c(O)c(-c2ccc(O)c(CC=C)c2)c1
- IC50 [1]: 38.4 µM
- IC50 (A549): 41.8 µM
- IC50 (K562): 38.8 µM

SMILES: C=CCc1ccc(O)c(-c2cc(C=O)c(O)c(CC=C)c2)c1
- IC50 (A2780 [2]): 16.7 µM
- IC50 [1]: 25.5 µM
- IC50 (A549): 41.8 µM
- IC50 (K562): 11.9 µM
- IC50 (A2780 [3]): 22.4 µM

SMILES: C=CCc1cc(/C=N\O)c(O)c(-c2ccc(O)c(CC=C)c2)c1
- IC50 (A2780 [2]): 33 µM
- IC50 [1]: 45 µM
- IC50 (A549): 40.4 µM
- IC50 (K562): 20.7 µM
- IC50 (A2780 [3]): 37.2 µM

SMILES: C=CCc1cc(-c2ccc(O)c(CC=C)c2)c2oncc2c1
- IC50 [1]: 77.3 µM
- IC50 (A549): 65.6 µM
- IC50 (K562): 78.4 µM

SMILES: C=CCc1cc(/C=C2\SC(=O)NC2=O)c(O)c(-c2ccc(O)c(CC=C)c2)c1
- IC50 [1]: > 102 µM
- IC50 (A549): 91.6 µM
- IC50 (K562): 91.6 µM

Reference: ChEMBL document CHEMBL1153073, “Semi-synthesis and anti-proliferative activity evaluation of novel analogues of Honokiol” (Bioorg Med Chem Lett, 2009)
